{
  "source": "ChEMBL document CHEMBL1649218",
  "about": "“New treatment option for second-stage African sleeping sickness: in vitro and in vivo efficacy of aza analogs of DB289” (Antimicrob Agents Chemother, 2009)",
  "key": {"[1]": {"tested_on": "Trypanosoma brucei rhodesiense", "assay": "Antitrypanosomal activity against wild-type Trypanosoma brucei rhodesiense STIB900 infected in NMRI mouse assessed as cure from infection at 15 mg/kg, po for 4 days", "type": "functional, organism-based", "design": "dose 15 mg/kg"}, "[2]": {"tested_on": "Trypanosoma brucei rhodesiense", "assay": "Antitrypanosomal activity against wild-type Trypanosoma brucei rhodesiense STIB900 infected in NMRI mouse assessed as survival of mouse at 15 mg/kg, po for 4 days", "type": "functional"}, "[3]": {"tested_on": "Trypanosoma brucei rhodesiense", "assay": "Antitrypanosomal activity against wild-type Trypanosoma brucei rhodesiense STIB900 infected in NMRI mouse assessed as survival of mouse at 50 mg/kg, po for 4 days", "type": "functional"}, "[4]": {"tested_on": "Trypanosoma brucei rhodesiense", "assay": "Antitrypanosomal activity against wild-type Trypanosoma brucei rhodesiense STIB900 infected in NMRI mouse assessed as cure from infection at 75 mg/kg, po for 4 days", "type": "functional, organism-based", "design": "dose 75 mg/kg"}, "[5]": {"tested_on": "Trypanosoma brucei rhodesiense", "assay": "Antitrypanosomal activity against wild-type Trypanosoma brucei rhodesiense STIB900 infected in NMRI mouse assessed as survival of mouse at 75 mg/kg, po for 4 days", "type": "functional"}, "[6]": {"tested_on": "Trypanosoma brucei rhodesiense", "assay": "Antitrypanosomal activity against melasoprol-resistant Trypanosoma brucei rhodesiense STIB900 by Alamar blue assay", "type": "functional, organism-based"}, "Mus musculus": {"tested_on": "Mus musculus", "assay": "Toxicity in NMRI mouse CNS model at 25 mg/kg, ip for 10 days", "type": "organism-based", "design": "dose 25 mg/kg, route intraperitoneal", "settings": "in vivo, 240 h"}, "[7]": {"tested_on": "Trypanosoma brucei gambiense", "assay": "Antitrypanosomal activity against Trypanosoma brucei gambiense K03048 by Alamar blue assay", "type": "functional, organism-based"}, "[8]": {"tested_on": "Trypanosoma brucei gambiense", "assay": "Antitrypanosomal activity against Trypanosoma brucei gambiense STIB930 by Alamar blue assay", "type": "functional, organism-based"}, "[9]": {"tested_on": "Trypanosoma brucei rhodesiense", "assay": "Antitrypanosomal activity against wild-type Trypanosoma brucei rhodesiense STIB900 by Alamar blue assay", "type": "functional, organism-based"}, "[10]": {"tested_on": "Trypanosoma brucei brucei", "assay": "Ratio of IC50 for Trypanosoma brucei brucei AT1KO to IC50 for Trypanosoma brucei brucei BS221", "type": "functional"}, "[11]": {"tested_on": "Trypanosoma brucei brucei", "assay": "Antitrypanosomal activity against Trypanosoma brucei brucei AT1KO by Alamar blue assay", "type": "functional, organism-based"}, "[12]": {"assay": "Ratio of IC50 for Trypanosoma brucei gambiense ITMAP141267 to IC50 for wild-type Trypanosoma brucei rhodesiense […]", "type": "functional"}, "[13]": {"assay": "Ratio of IC50 for Trypanosoma brucei gambiense STIB930 to IC50 for wild-type Trypanosoma brucei rhodesiense […]", "type": "functional"}, "[14]": {"assay": "Ratio of IC50 for Trypanosoma brucei gambiense K03048 to IC50 for wild-type Trypanosoma brucei rhodesiense STIB900", "type": "functional"}, "[15]": {"tested_on": "Trypanosoma brucei gambiense", "assay": "Antitrypanosomal activity against Trypanosoma brucei gambiense ITMAP141267 by Alamar blue assay", "type": "functional, organism-based"}, "[16]": {"tested_on": "Trypanosoma brucei rhodesiense", "assay": "Ratio of IC50 for pentamidine-resistant Trypanosoma brucei rhodesiense STIB900 to IC50 for wild-type Trypanosoma brucei rhodesiense STIB900", "type": "functional"}, "[17]": {"tested_on": "Trypanosoma brucei rhodesiense", "assay": "Antitrypanosomal activity against pentamidine-resistant Trypanosoma brucei rhodesiense STIB900 by Alamar blue assay", "type": "functional, organism-based"}, "[18]": {"tested_on": "Trypanosoma brucei gambiense", "assay": "Ratio of IC50 for Trypanosoma brucei gambiense K03048 to IC50 for Trypanosoma brucei gambiense STIB930", "type": "functional"}, "[19]": {"tested_on": "Trypanosoma brucei rhodesiense", "assay": "Ratio of IC50 for melasoprol-resistant Trypanosoma brucei rhodesiense STIB900 to IC50 for wild-type Trypanosoma brucei rhodesiense […]", "type": "functional"}, "[20]": {"tested_on": "Trypanosoma brucei brucei", "assay": "Antitrypanosomal activity against Trypanosoma brucei brucei GVR35 infected in NMRI mouse CNS model assessed as survival of mouse at 20 mg/kg, ip for 5 days", "type": "functional", "settings": "route intraperitoneal"}, "[21]": {"tested_on": "Trypanosoma brucei brucei", "assay": "Antitrypanosomal activity against Trypanosoma brucei brucei BS221 by Alamar blue assay", "type": "functional, organism-based"}, "[22]": {"tested_on": "Trypanosoma brucei brucei", "assay": "Antitrypanosomal activity against Trypanosoma brucei brucei GVR35 infected in NMRI mouse CNS model assessed as survival of mouse at 10 mg/kg, ip for 10 days", "type": "functional", "settings": "route intraperitoneal"}, "[23]": {"tested_on": "Trypanosoma brucei rhodesiense", "assay": "Antitrypanosomal activity against wild-type Trypanosoma brucei rhodesiense STIB900 infected in NMRI mouse assessed as survival of mouse at 20 mg/kg, ip for 4 days", "type": "functional", "settings": "route intraperitoneal"}, "[24]": {"tested_on": "Trypanosoma brucei rhodesiense", "assay": "Antitrypanosomal activity against wild-type Trypanosoma brucei rhodesiense STIB900 infected in NMRI mouse assessed as survival of mouse at 5 mg/kg, ip for 4 days", "type": "functional", "settings": "route intraperitoneal"}, "[25]": {"tested_on": "Trypanosoma brucei brucei", "assay": "Antitrypanosomal activity against Trypanosoma brucei brucei GVR35 infected in NMRI mouse CNS model assessed as cure from infection at 20 mg/kg, ip for 5 days", "type": "functional, organism-based", "design": "dose 20 mg/kg"}},
  "note": "Calls of active or inactive are those of the source. The rule behind the calls is not given here.",
  "data": [
    {"smiles": "CO/N=C(/N)c1ccc(-c2ccc(-c3ccc(/C(N)=N/O)cc3)o2)cc1", "values": [
      {"measurement": "Activity", "setting": "[1]", "result": "inactive"},
      {"measurement": "MSD", "setting": "[2]", "result": 30.25, "unit": "days"},
      {"measurement": "MSD", "setting": "[3]", "result": ">56", "unit": "days"}
    ]},
    {"smiles": "N/C(=N\\O)c1ccc(-c2ccc(-c3ccc(/C(N)=N\\O)cn3)o2)nc1", "values": [
      {"measurement": "Activity", "setting": "[4]", "result": "inactive"},
      {"measurement": "MSD", "setting": "[5]", "result": 18, "unit": "days"}
    ]},
    {"smiles": "N=C(N)c1ccc(-c2ccc(-c3ccc(C(=N)N)cc3)o2)cc1", "note": "[FURAMIDINE]", "values": [
      {"measurement": "IC50", "setting": "[6]", "result": 19, "unit": "ng/mL"},
      {"measurement": "Activity", "setting": "Mus musculus", "result": "Toxic"},
      {"measurement": "IC50", "setting": "[7]", "result": 4.2, "unit": "ng/mL"},
      {"measurement": "IC50", "setting": "[8]", "result": 5.1, "unit": "ng/mL"},
      {"measurement": "IC50", "setting": "[9]", "result": 1, "unit": "ng/mL"},
      {"measurement": "Ratio IC50", "setting": "[10]", "result": 13.1},
      {"measurement": "IC50", "setting": "[11]", "result": 15.8, "unit": "ng/mL"},
      {"measurement": "Ratio IC50", "setting": "[12]", "result": 3.2},
      {"measurement": "Ratio IC50", "setting": "[13]", "result": 5.3},
      {"measurement": "Ratio IC50", "setting": "[14]", "result": 4.3},
      {"measurement": "IC50", "setting": "[15]", "result": 3.1, "unit": "ng/mL"},
      {"measurement": "Ratio IC50", "setting": "[16]", "result": 14.7},
      {"measurement": "IC50", "setting": "[17]", "result": 14.3, "unit": "ng/mL"},
      {"measurement": "Ratio IC50", "setting": "[18]", "result": 14},
      {"measurement": "Ratio IC50", "setting": "[19]", "result": 19.5},
      {"measurement": "MSD", "setting": "[20]", "result": ">132.3", "unit": "days"},
      {"measurement": "IC50", "setting": "[21]", "result": 1.2, "unit": "ng/mL"},
      {"measurement": "MSD", "setting": "[22]", "result": ">112", "unit": "days"},
      {"measurement": "MSD", "setting": "[23]", "result": ">57.75", "unit": "days"},
      {"measurement": "MSD", "setting": "[24]", "result": ">46", "unit": "days"},
      {"measurement": "Activity", "setting": "[25]", "result": "inactive"}
    ]}
  ]
}
